Patent US20240190922A1, “PEPTIDE PLATINUM COMPLEXES AND METHODS OF USE THEREOF” (priority 2020, published 2024)
Ends that are not written are not given here.

System: A375 cells (human skin melanoma derived cell line)
Test: A375 cell killing assay (CellTiter-Glo luminescence)
Format: cell-based
Conditions: for potency relative to Onco-001 (times more potent): from EC50 values
Procedure: Alternatively, A375 cells (human skin melanoma derived cell line) are harvested by centrifugation and then re-suspended in a culture medium. The cell density is adjusted, and cell suspension transferred to the assay multi-well plate. The marginal wells are filled with PBS. The assay plate is incubated in a cell incubator for about 16˜18 hours. Working solutions of test compounds and positive control at various concentrations are added to corresponding wells of the plate. The assay plate is then incubated for an additional 72 hours in a 37° C./5% CO2 incubator. After incubation, the working solution of CellTiter-Glo® reagent is added to the corresponding wells and shaken on an orbital shaker. The assay plate is incubated at room temperature for a short while to stabilize the luminescent signal. Luminescence signals are measured by a luminescence plate reader, such as PheraStar (BMG). Data are stored on a local computer or computer server for analysis.

Substance | potency relative to Onco-001 (times more potent) | EC50 (72 hours incubation, CellTiter-Glo)
Onco -005 (Ac-GPSRVGG; not fully specified (C-terminus); also: gamma-carboxyglutamic acid, no place given) | approximately 15 × | 
Onco-003: formula (I): R1 and R2 form trans-R,R-1,2-diaminocyclohexane, R3 and R4 joined by bidentate peptide AcGPSRVGGCD | approximately 15 × | 
cis-bis[AcGPSRVGGCNH2][trans-(1R,2R)-1,2-diaminocyclohexane]platinum(II) [Onco-001] |  | ~130 µM
